Experimental data as given in US3983230A, “Antibiotic siomycin A derivatives and production thereof” (priority 1973, dated 1976).
Converted amounts (≈) assume the structure as drawn. Where two headings read alike, the source gives them in different places.

How the values were obtained:
[1] = test system: Diplococcus pneumoniae type I; assay: Therapeutic effect in mice infected with Diplococcus pneumoniae type I; format: in vivo; settings: i.p. infection with Diplococcus pneumoniae type I, subcutaneous at 0, 4 and 8 hours, survival 7 days
Description: (§1) The therapeutic effect of sodium salts of the half ester of siomycin A with dicarboxylic acid in mice against experimental infections are shown in Table 3.
(§2) A group of 10 mice weighing 19-21 g were infected with a standardized inoculum of Diplococcus pneumoniae type or Streptococcus pyogenes C-203 by intraperitoneal injection.
(§3) The sodium salts of half esters of siomycin A with the dicarboxylic acid were administered subcutaneously to the mice at 0, 4 and 8 hours after infection and survival of infected mice was examined for 7 days after infection.

[2] = Solubility in 0.1% aqueous sodium hydrogencarbonate (distilled water for sodium salts), Table 1; format: physicochemical; settings: 0.1% aqueous solution of sodium hydrogencarbonate
Excerpt: The solubility in various solvents of several specific products obtained by the process of the present invention are shown in Table 1 in comparison with the solubility of siomycin A.

[3] = test system: Diplococcus pneumoniae type I; assay: Minimum inhibitory concentration, Diplococcus pneumoniae type I; format: cell-based
[4] = test system: Bacillus subtilis PCI 219; assay: Minimum inhibitory concentration, Bacillus subtilis PCI 219; format: cell-based
[5] = test system: Staphylococcus aureus 80257; assay: Minimum inhibitory concentration, Staphylococcus aureus 80257; format: cell-based
gram-positive bacteria = assay: Antibacterial activity against gram-positive bacteria; format: cell-based
Excerpt: The half esters of siomycin A and salts thereof show activities against a variety of microorganisms.

[6] = test system: Streptococcus pyogenes C-203; assay: Therapeutic effect in mice infected with Streptococcus pyogenes C-203; format: in vivo; settings: i.p. infection with Streptococcus pyogenes C-203, subcutaneous at 0, 4 and 8 hours, survival 7 days
Description: as §1, §2, §3

[7] = test system: Streptococcus pyogenes C-203; assay: Minimum inhibitory concentration, Streptococcus pyogenes C-203; format: cell-based
[8] = Qualitative solubility in various solvents (text, Examples)
[9] = test system: Staphylococcus aureus FDA 219PJC-1; assay: Minimum inhibitory concentration, Staphylococcus aureus FDA 219PJC-1; format: cell-based
Bacillus anthracis = format: cell-based
[10] = background, cited from earlier work

`C=C(NC(=O)C(=C)NC(=O)c1csc(C2=N[C@@H]3c4csc(n4)[C@H]4NC(=O)c5csc(n5)[C@H]([C@](C)(O)[C@@H](C)O)NC(=O)[C@H]5CSC(=N5)/C(=C/C)NC(=O)[C@H]([C@@H](C)O)NC(=O)c5csc(n5)[C@]3(CC2)NC(=O)[C@H](C)NC(=O)C(=C)NC(=O)C(=C)NC(=O)[C@H](C(C)C)N[C@@H]2C=Cc3c([C@H](C)O)cc(nc3[C@H]2O)C(=O)O[C@@H]4C)n1)C(N)=O` [Siomycin A, siomycin A] showed an ED50 [1] of 23.2 mg/kg, a Solubility [2] of 0.00015% and a Minimum inhibitory concentration [3] of 0.1 µg/mL (≈ 0.0606 µM). The Minimum inhibitory concentration [4] was 0.39 µg/mL (≈ 0.237 µM), the Minimum inhibitory concentration [5] was 0.39 µg/mL (≈ 0.237 µM) and the “minimum inhibitory concentration against gram-positive bacteria” value (gram-positive bacteria) was 0.1 to 0.78 µg/mL. For the same molecule, the ED50 [6] was 75.2 mg/kg, the Minimum inhibitory concentration [7] was 0.1 µg/mL (≈ 0.0606 µM) and the Solubility ([8]; dilute alkaline solution) was “almost insoluble”. For the same molecule, the Solubility ([8]; water) was “almost insoluble”, the Minimum inhibitory concentration [9] was 0.39 µg/mL (≈ 0.237 µM) and the Minimum inhibitory concentration (Bacillus anthracis) was 0.78 µg/mL (≈ 0.473 µM). For the same molecule, the Solubility ([10]; butanol) was “slightly soluble”, the Solubility ([10]; chloroform) was “slightly soluble” and the Solubility ([10]; dioxane) was “soluble”. For the same molecule, the Solubility ([10]; ethanol) was “slightly soluble”, the Solubility ([10]; methanol) was “slightly soluble” and the Solubility ([10]; water) was “almost insoluble”.
